The source of these data is patent US12202818B2, “Compounds and methods for CD73 modulation and indications therefor” (Opna Bio SA, priority 2020, dated 2025).

In one test the target is T1, human CD73 (Homo sapiens, UniProt P21589).
T1 construct: expressed in transfected cells
T1 sequence (P21589 27-549): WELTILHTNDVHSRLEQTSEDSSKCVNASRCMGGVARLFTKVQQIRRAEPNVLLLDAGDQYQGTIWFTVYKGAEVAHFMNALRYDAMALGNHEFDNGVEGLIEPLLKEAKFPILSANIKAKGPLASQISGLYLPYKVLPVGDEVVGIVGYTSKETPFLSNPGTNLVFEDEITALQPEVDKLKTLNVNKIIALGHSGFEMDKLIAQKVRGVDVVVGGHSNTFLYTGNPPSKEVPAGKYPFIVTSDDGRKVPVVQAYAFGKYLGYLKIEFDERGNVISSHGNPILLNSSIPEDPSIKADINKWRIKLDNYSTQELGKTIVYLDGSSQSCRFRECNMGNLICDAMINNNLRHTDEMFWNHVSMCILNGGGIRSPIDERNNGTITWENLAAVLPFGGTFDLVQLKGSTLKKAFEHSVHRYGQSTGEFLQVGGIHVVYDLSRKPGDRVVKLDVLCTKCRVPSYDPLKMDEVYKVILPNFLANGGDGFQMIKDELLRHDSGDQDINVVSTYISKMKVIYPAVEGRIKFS
In words: Inhibitor activity against CD73 in cell based assay (CD73 expressing CHO-K1 cells). Conditions: CHO-K1 cells expressing human CD73, 150 μM AMP, 4 hours of incubation; read-out: CHO-K1 CELL_VARIANT: CD73 IC50. The method in brief: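 Stable human CD73 CHO-K1 cells, 1×10^4/well, exposed to an 8-point 1:3 compound series (top 10 μM, 0.2% DMSO) plus 150 μM AMP for 4 h. Remaining AMP in the supernatant was read by CellTiter-Glo 2.0 luminescence with 1 μM ATP after 30 min at room temperature. IC50 came from nonlinear regression of % inhibition against cell and media-only controls.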

The target of test [1] is T2, Human CD73 (amino acid residues 27-549) (Homo sapiens, UniProt P21589).
T2 construct: Human CD73 (amino acid residues 27-549); His tag (N); made in house; host or cells: E. coli
T2 sequence (P21589 27-549): T1 sequence (P21589 27-549)
In words: CD73 enzymatic assay (luciferase-based indirect assay, CellTiter-Glo). The test is classed as biochemical. Conditions: 0.4 nM CD73, 150 μM AMP, 1 hour at room temperature. An outline of the steps: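 N-His human CD73 (27-549) expressed in E. coli, 0.4 nM, incubated with 150 μM AMP and compound in 50 mM HEPES pH 7.4, 0.01% Tween-20, 1 h at RT. Remaining AMP read via CellTiter-Glo luminescence with 1 μM ATP after 30 min; IC50 from nonlinear regression of % inhibition.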
A general note: In ATP-based viability assays light output follows the ATP content of the culture.

pIC50: −log10 of the molar value.

One may read the pIC50 as the negative decadic logarithm of the IC50, by convention in mol/L. For the compound `COc1ccc2c(c1)cc(-c1ccnc(O[C@@H]3CCN(c4cnn(CCO)c(=O)c4Cl)C3)c1)n2C` [P-0106, (R)-4-chloro-2-(2-hydroxyethyl)-5-(3-((4-(5-methoxy-1-methyl-1H-indol-2-yl)pyridin-2-yl)oxy)pyrrolidin-1-yl)pyridazin-3(2H)-one], the pIC50 (at human CD73; in test [1]) was 5.00 to 9.00 in each case.

As to `O=c1c(Cl)c(N2CC[C@@H](Oc3cc(N4[C@@H]5CC[C@H]4CC(F)(F)C5)ccn3)C2)cnn1CCO` [P-0107, 4-chloro-5-((R)-3-((4-((1R,5S)-3,3-difluoro-8-azabicyclo[3.2.1]octan-8-yl)pyridin-2-yl)oxy)pyrrolidin-1-yl)-2-(2-hydroxyethyl)pyridazin-3(2H)-one], the figures for the negative-log IC50 (pIC50) (at human CD73; in test [1]) were 4.00 to 5.00 and 5.00 to 9.00, respectively.

Take `COc1ccc2c(c1)cc(-c1ccnc(O[C@@H]3CCN(c4cn[nH]c(=O)c4Cl)C3)c1)n2C` [P-0108, (R)-4-chloro-5-(3-((4-(5-methoxy-1-methyl-1H-indol-2-yl)pyridin-2-yl)oxy)pyrrolidin-1-yl)pyridazin-3(2H)-one]: the negative-log IC50 (pIC50) (at human CD73; in test [1]) was 5.00 to 9.00 in each case.

For the compound `CC(C)c1cc(Nc2cccnc2O[C@@H]2CCN(c3cn[nH]c(=O)c3Cl)C2)n(C)n1` [P-0109, (R)-4-chloro-5-(3-((3-((3-isopropyl-1-methyl-1H-pyrazol-5-yl)amino)pyridin-2-yl)oxy)pyrrolidin-1-yl)pyridazin-3(2H)-one], the pIC50 (at human CD73; in test [1]) was 5.00 to 9.00 in each case.

As to `O=c1[nH]ncc(N2CC[C@@H](Oc3ncccc3NC3CCC(F)(F)CC3)C2)c1Cl` [P-0110, (R)-4-chloro-5-(3-((3-((4,4-difluorocyclohexyl)amino)pyridin-2-yl)oxy)pyrrolidin-1-yl)pyridazin-3(2H)-one], the pIC50 (on human CD73; in test [1]) was 5.00 to 9.00 each time.

In the case of `O=c1[nH]ncc(N2CC[C@@H](Oc3cc(N4[C@@H]5CC[C@H]4CC(F)(F)C5)ccn3)C2)c1Cl` [P-0111, 4-chloro-5-((R)-3-((4-((1R,5S)-3,3-difluoro-8-azabicyclo[3.2.1]octan-8-yl)pyridin-2-yl)oxy)pyrrolidin-1-yl)pyridazin-3(2H)-one], the negative-log IC50 (pIC50) was 4.00 to 5.00 at human CD73 and 5.00 to 9.00 in test [1].

Turning to `Cc1nn(CC2(C)COC2)c(C)c1-c1ccnc(O[C@@H]2CCN(c3cnn(CCO)c(=O)c3Cl)C2)c1` [P-0112, (R)-4-chloro-5-(3-((4-(3,5-dimethyl-1-((3-methyloxetan-3-yl)methyl)-1H-pyrazol-4-yl)pyridin-2-yl)oxy)pyrrolidin-1-yl)-2-(2-hydroxyethyl)pyridazin-3(2H)-one], the pIC50 (at human CD73; in test [1]) was 5.00 to 9.00 each time.

Take `Cc1nn(C)c(C)c1-c1ccnc(O[C@@H]2CCN(c3cn[nH]c(=O)c3)C2)c1` [P-0113, (R)-5-(3-((4-(1,3,5-trimethyl-1H-pyrazol-4-yl)pyridin-2-yl)oxy)pyrrolidin-1-yl)pyridazin-3(2H)-one]: the pIC50 (at human CD73; in test [1]) was 5.00 to 9.00 each time.

As for `Cc1nn(C)c(C)c1-c1ccnc(O[C@@H]2CCN(c3cn[nH]c(=O)c3C#N)C2)c1` [P-0114, (R)-3-oxo-5-(3-((4-(1,3,5-trimethyl-1H-pyrazol-4-yl)pyridin-2-yl)oxy)pyrrolidin-1-yl)-2,3-dihydropyridazine-4-carbonitrile], the negative-log IC50 (pIC50) (at human CD73; in test [1]) was 5.00 to 9.00 each time.

As for `Cc1nn(C)c(C)c1-c1cc(O[C@@H]2CCN(c3cnn(CCO)c(=O)c3Cl)C2)ncc1F` [P-0115, (R)-4-chloro-5-(3-((5-fluoro-4-(1,3,5-trimethyl-1H-pyrazol-4-yl)pyridin-2-yl)oxy)pyrrolidin-1-yl)-2-(2-hydroxyethyl)pyridazin-3(2H)-one], the pIC50 (on human CD73; in test [1]) was 5.00 to 9.00 each time.

Regarding `O=c1[nH]ncc(N2CC[C@@H](Oc3cc(C4=CCCCC4)ccn3)C2)c1Cl` [P-0116, (R)-4-chloro-5-(3-((4-(cyclohex-1-en-1-yl)pyridin-2-yl)oxy)pyrrolidin-1-yl)pyridazin-3(2H)-one], the pIC50 (on human CD73; in test [1]) was 5.00 to 9.00 each time.
